Usually LD50 stands for the dose at which mortality reaches 50%. High values mean a less toxic substance, low ones a more toxic substance. Broadly, the ED50 is the dose that gives a 50% effect, or the effect in half of the subjects. What is called solubility is the dissolved amount per volume that the medium holds. A low value points to a poorly soluble substance.

Values after ≈ are worked out from the molar mass of the structure shown. Bounds are passed on as bounds.

The test system of series [1] is Streptococcus faecalis ATCC 10541. Description: Antibacterial activity, minimum growth inhibitory concentration by agar dilution method (SF). The conditions noted are these: Enterococcus faecalis, ATCC10541, pH 7, read-out: MIC, Streptococcus faecalis (SF). Format: cell-based. On the procedure: (§1) The various compounds of formula (I) of Examples 1-26 were tested for antibacterial activity against 6 microorganisms. […]. In this table, the following symbols are used:
SF: Streptococcus faecalis ATCC 10541
Background: In agar dilution the substance is mixed into plates at graded concentrations.

Series [2] has as its system Staphylococcus aureus ATCC 6538P. As to the kind of experiment: Antibacterial activity, minimum growth inhibitory concentration by agar dilution method (SA). Format: cell-based. The settings on record: ATCC6538P, pH 7, read-out: MIC, Staphylococcus aureus (SA). The method, then:
as §1
SA: Staphylococcus aureus ATCC 6538P

In series [3] the test system is Bacillus subtilis 10707. As to the kind of experiment: Antibacterial activity, minimum growth inhibitory concentration by agar dilution method (BS). Format: cell-based. The settings on record: Bacillus subtilis, 10707, pH 7, read-out: MIC, Bacillus subtilis (BS). The method, then: as §1
BS: Bacillus subtilis 10707

Series [4] has as its system Proteus vulgaris ATCC 6897. Description: Antibacterial activity, minimum growth inhibitory concentration by agar dilution method (PV). Format: cell-based. The conditions noted are these: ATCC6897, pH 7, read-out: MIC, Proteus vulgaris (PV). On the procedure: as §1
PV: Proteus vulgaris ATCC 6897

Series [5] relates to Shigella sonnei ATCC 9290. Description: Antibacterial activity, minimum growth inhibitory concentration by agar dilution method (SS). In kind it is cell-based. The conditions noted are these: ATCC9290, pH 7, read-out: MIC, Shigella sonnei (SS). The method, then:
as §1
SS: Shigella sonnei ATCC 9290

The test system of series [6] is Klebsiella pneumoniae ATCC 10031. As to the kind of experiment: microbe, parasite or virus in culture. Format: cell-based. The settings on record: ATCC10031, pH 7, read-out: MIC, Klebsiella pneumoniae (KP). From the text:
In this table, the following symbols are used:
KP: Klebsiella pneumoniae ATCC 10031

Series [7] is described as follows: Acute toxicity in mice (LD50, Behrens Kerber's method). The conditions noted are these: mouse, in vivo, ip; ddy mice, single intraperitoneal administration, 14 days observation. The method, then: (§2) The antitumour-activity and toxicity of various compounds of formula (I) were investigated as indicated below.
Each animal of the test group consisting of 5 ddy mice was administered intraperitoneally once with a test compound. […] The LD50 was determined by Behrens Kerber's method.

The test system of series [8] is Sarcoma 180 solid tumour. As to the kind of experiment: Anti-tumour activity against Sarcoma 180 solid tumour in mice. In kind it is in vivo. The settings on record: Mus musculus, sc, 168 h; Sarcoma 180 s.c. in ddy mice; into tail vein 24 hours after implantation; volume at 7 days; read-out: ED50 (dose reducing tumour volume to 50% of control). On the procedure: as §2
(1) Effect against Sarcoma 180 solid tumour cells
5×10^6 cells of Sarcoma 180 solid tumour were intraperitoneally implanted into ddy mice. 7 days later, ascites cells were sampled. The cells were washed once with a sterilized physiological solution of sodium chloride and were used to prepare a cell suspension containing 5×10^7 cells per ml. On each occasion, 0.1 ml of the cell suspension was subcutaneously implanted into the right arm pit of a male mouse (ddy strain; body weight 20±2 g). The test compound was dissolved in a physiological solution of sodium chloride with or without addition of Tween 80 and was administered into the tail vein of each mouse of a group consisting of 5 mice at a dose of 0.1-0.2 ml, 24 hours after the implantation of the tumour cells.
The anti-tumour activity was determined in the following manner. 7 days after the implantation, the major axis (a) and the minor axis (b) of the tumour were measured to calculate a value of "a×b^2 /2" which corresponds to the volume of the tumour. The anti-tumour activity was expressed by the ratio of the volume of the tumours (T) of the group of animals administered with the test compound to the corresponding volume of tumours (c) of the untreated animals.
(2) Determination of ED50
(The amount needed for reducing the volume of Sarcoma 180 solid tumours in mice to 50% on the basis of the corresponding volume of Sarcoma solid tumours in control untreated animals). On graph paper, T/C (the ratio of the volume of tumours of treated and control animals) was indicated by an arithmetic scale on the longitudinal axis and the administered amount of the test compound was indicated by a logarithmic scale on the lateral axis.
The relationship between the dose and T/C was shown by a straight line determined by the method of least squares, from which a dose corresponding to T/C of 0.5 was obtained.

In series [9] the test system is peripheral leucocytes. Description: Effect on the peripheral leucocytes number in Sarcoma 180 bearing mice. In kind it is in vivo. The settings on record: Sarcoma 180 bearing ddy mice; intraperitoneal 24 hours after implantation; blood 4 days later. The method, then:
as §2
(4) Effect on the peripheral leucocytes number
Sarcoma 180 solid tumour cells (5×10^6) were subcutaneously implanted into the right arm pit of each mouse (body weight 20±2 g) of a group consisting of 5 male mice (ddy strain). 24 hours after implantation, a test compound was intraperitoneally administered to each animal. 4 days later, blood (each 0.02 ml) was collected from the suborbital plexus vein of each tumour-carrying animal. The collected sample of the blood was dispersed in 9.98 ml of Cell-Kit Seven solution. One drop of saponin solution was added to the sample to dissolve erythrocytes, and then a microcell counter was used to measure the number of leucocytes. On a graph paper, the number of leucocytes was indicated on the y-axis by an arithmetic scale and the dose of the test compound was indicated on the x-axis by a logarithmic scale. The relationship between the number of peripheral leucocytes and the dosage of the test compound was plotted and the dosage corresponding to 4000 peripheral leucocytes/mm^3 (about 1/2 the number of leucocytes of normal mice) was obtained. This value is denoted in Table 5 by WBC4000.

A short description of series [10]: Solubility in 0.03M phosphate buffered solution. In kind it is physicochemical. The conditions noted are these: 0.03m phosphate buffer, aqueous buffer, pH 7.0, 23° C. On the procedure:
The solubilities of Compound 5, Compound 14 and Compound 20 in 0.03M phosphate buffered solution (pH 7.0, 23° C.) were determined.

Series [11] can be described thus: Stability of the product as observed on isolation. In kind it is physicochemical. The conditions noted are these: in words; yield not constant. On the procedure: To this solution is added dropwise 1 ml of methanol containing 23 mg of L-cysteine methyl ester hydrochloride and 50 μl of triethylamine. About 2 minutes later, the solvent is removed from the mixture by distillation under reduced pressure. Then, a similar treatment to that described in Example 1 is effected to obtain a small amount of Compound 16 as a grayish green powder. The yield of the resultant compound is not constant because of its unstability.
The yield is not constant because of unstability of the product.

Turning to `CO[C@@]12[C@H](COC(N)=O)C3=C(C(=O)C(C)=C(NCCSSc4ccc(NC(C)=O)cc4)C3=O)N1C[C@@H]1N[C@@H]12` [Compound 5, 7-N-[2-(4-Acetamidophenyldithio)ethyl]mitomycin C], the MIC in series [1] is 0.04 µg/mL (≈ 0.0715 µM); in [2], 0.02 µg/mL (≈ 0.0357 µM); in [3], 0.005 µg/mL (≈ 0.00893 µM); in series [4], 5 µg/mL (≈ 8.93 µM); in series [5], over 40 µg/mL; in [6] it was 0.16 µg/mL (≈ 0.286 µM). In addition, in series [7], the LD50 at 336 h is 30 mg/kg. In addition, in [8], the ED50 turned out to be 8.5 mg/kg. Besides, the “WBC4000 (dosage corresponding to 4000 peripheral leucocytes/mm^3)” value (“WBC4000” for short) in series [9] worked out at 14.2 mg/kg. This molecule also returned a solubility in series [10] of 0.052 mg/mL (≈ 92.9 µM).
Consider `COC(=O)[C@@H](N)CSSCCNC1=C(C)C(=O)C2=C(C1=O)[C@@H](COC(N)=O)[C@@]1(OC)[C@H]3N[C@H]3CN21` [Compound 16, 7-N-[2-[(L-1-Methoxycarbonylcysteamin-S-yl)thio]ethyl]mitomycin C], for which the MIC is 0.39 µg/mL (≈ 0.739 µM) in [1]; 0.2 µg/mL (≈ 0.379 µM) in series [2]; under 0.02 µg/mL in [3]; 1.6 µg/mL (≈ 3.03 µM) in series [4]; 50 µg/mL (≈ 94.8 µM) in series [5]; 0.2 µg/mL (≈ 0.379 µM) in series [6]. In addition, the “stability of the resultant compound” value in [11] is reported as “unstability”.
For `CO[C@@]12[C@H](COC(N)=O)C3=C(C(=O)C(C)=C(NCCSSC[C@H](N)C(=O)NCC(=O)O)C3=O)N1C[C@@H]1N[C@@H]12` [Compound 20, 7-N-[2-[(Glycino-L-cystein-S-71)thio]ethyl]mitomycin C], the MIC was 0.63 µg/mL (≈ 1.1 µM) in series [1]; 0.31 µg/mL (≈ 0.543 µM) in series [2]; 0.08 µg/mL (≈ 0.14 µM) in series [3]; 5 µg/mL (≈ 8.76 µM) in series [4]; 0.63 µg/mL (≈ 1.1 µM) in series [6]. For the same molecule, in [7], the LD50 at 336 h was determined as 27 mg/kg. For the same molecule, in [8], the ED50 amounted to 9.6 mg/kg. Moreover, the “WBC4000” value in series [9] amounted to 20.5 mg/kg. The molecule also gave a solubility in series [10] of over 100 mg/mL.
Take `CCOC(=O)[C@@H](N)CSSCCNC1=C(C)C(=O)C2=C(C1=O)[C@@H](COC(N)=O)[C@@]1(OC)[C@H]3N[C@H]3CN21` [Compound 17]: the MIC in [1] is 0.2 µg/mL (≈ 0.369 µM); in [2] it was 0.2 µg/mL (≈ 0.369 µM); in [3], under 0.02 µg/mL; in [4], 1.6 µg/mL (≈ 2.95 µM); in [5] it was 25 µg/mL (≈ 46.2 µM); in series [6], 0.2 µg/mL (≈ 0.369 µM). Further, the “stability of the resultant compound” value in series [11] was “unstability”.
As to `CO[C@@]12[C@H](COC(N)=O)C3=C(C(=O)C(C)=C(NCCSSC[C@H](N)C(=O)O)C3=O)N1C[C@@H]1N[C@@H]12` [Compound 14, 7-N-[2-[(L-Cystein-S-yl)thio]ethyl]mitomycin C], the MIC was 0.31 µg/mL (≈ 0.604 µM) in series [1]; 0.31 µg/mL (≈ 0.604 µM) in series [2]; 0.16 µg/mL (≈ 0.312 µM) in series [3]; 5 µg/mL (≈ 9.74 µM) in [4]; over 20 µg/mL in series [5]; 0.63 µg/mL (≈ 1.23 µM) in [6]. Moreover, in [7], the LD50 at 336 h was 30 mg/kg. In addition, in series [8], the ED50 stood at 15.4 mg/kg. Also, the “WBC4000” value in series [9] stood at 26.9 mg/kg. In addition, the solubility in [10] was over 100 mg/mL.
Consider `CO[C@@]12[C@H](COC(N)=O)C3=C(C(=O)C(C)=C(NCCSSc4cccc(N)c4)C3=O)N1C[C@@H]1N[C@@H]12` [Compound 3, 7-N-[2-(3-aminophenyldithio)ethyl]mitomycin C], for which the MIC is 0.04 µg/mL (≈ 0.0773 µM) in [1]; 0.08 µg/mL (≈ 0.155 µM) in series [2]; under 0.01 µg/mL in [3]; 5 µg/mL (≈ 9.66 µM) in [4]; 20 µg/mL (≈ 38.6 µM) in [5]; 0.63 µg/mL (≈ 1.22 µM) in series [6]. This molecule came in with an LD50 at 336 h in [7] of 7.5 mg/kg. The ED50 in [8] is 5 mg/kg. For the same molecule, the “WBC4000” value in [9] is given as over 10 mg/kg.
Take `CO[C@@]12[C@H](COC(N)=O)C3=C(C(=O)C(C)=C(NCCSSc4ccc(F)cc4)C3=O)N1C[C@@H]1N[C@@H]12` [Compound 12, 7-N-[2-(4-Fluorophenyldithio)ethyl]mitomycin C]: the MIC was under 0.02 µg/mL in series [1]; under 0.02 µg/mL in series [2]; under 0.02 µg/mL in [3]; 0.63 µg/mL (≈ 1.21 µM) in series [4]; 20 µg/mL (≈ 38.4 µM) in [5]; 0.31 µg/mL (≈ 0.595 µM) in [6]. For the same molecule, in series [7], the LD50 at 336 h is 6.8 mg/kg. Further, the ED50 in series [8] turned out to be 3.5 mg/kg. For the same molecule, the “WBC4000” value in series [9] is 10.4 mg/kg.

The values are drawn from patent US4691024A, “New mitomycin derivatives, preparation thereof and pharmaceutical compositions containing them” (priority 1984, dated 1987).
